The source made the active and inactive calls. The calls are words filed in the database; no cut-off is given here.
Columns and labels:
[1] = target: Protein arginine N-methyltransferase 1 (Homo sapiens) (UniProt Q99873); assay: Inhibition of human PRMT1 at 40 uM by TRF assay; set-up: scale not given: the % may be the effect or the level left
RmtA = RmtA (Emericella nidulans, UniProt Q5VLE3); assay: Inhibition of Aspergillus nidulans RmtA by TRF assay
[2] = target: RmtA (Emericella nidulans) (UniProt Q5VLE3); assay: Inhibition of Aspergillus nidulans RmtA at 40 uM by TRF assay; set-up: scale not given: the % may be the effect or the level left
Chain of RmtA (Emericella nidulans) (Q5VLE3 as listed by the source): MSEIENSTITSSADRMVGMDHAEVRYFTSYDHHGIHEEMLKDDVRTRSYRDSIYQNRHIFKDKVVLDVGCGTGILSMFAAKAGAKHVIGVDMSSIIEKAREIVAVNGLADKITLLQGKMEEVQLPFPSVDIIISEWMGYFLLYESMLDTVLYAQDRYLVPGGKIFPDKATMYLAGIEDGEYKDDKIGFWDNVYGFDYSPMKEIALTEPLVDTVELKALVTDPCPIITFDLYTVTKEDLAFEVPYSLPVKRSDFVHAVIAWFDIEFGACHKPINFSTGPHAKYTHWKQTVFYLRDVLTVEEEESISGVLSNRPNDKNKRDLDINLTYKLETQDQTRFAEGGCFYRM

[3] = target: T1, Histone-lysine N-methyltransferase SETD7 (Homo sapiens) (UniProt Q8WTS6); assay: Inhibition of lysine methyltransferase SET7/9 at 50 uM
T1 sequence (whole entry): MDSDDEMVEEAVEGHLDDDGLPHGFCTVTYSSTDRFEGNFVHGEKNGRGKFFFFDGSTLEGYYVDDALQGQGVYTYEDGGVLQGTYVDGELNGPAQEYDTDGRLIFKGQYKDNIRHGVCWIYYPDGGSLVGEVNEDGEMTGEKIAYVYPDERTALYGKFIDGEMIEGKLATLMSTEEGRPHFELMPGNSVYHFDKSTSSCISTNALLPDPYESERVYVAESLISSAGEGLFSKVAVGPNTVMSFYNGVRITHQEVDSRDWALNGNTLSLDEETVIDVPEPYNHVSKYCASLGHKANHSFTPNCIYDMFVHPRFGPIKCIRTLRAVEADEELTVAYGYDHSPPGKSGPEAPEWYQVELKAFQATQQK

Chain of Protein arginine N-methyltransferase 1 (Homo sapiens) (Q99873 whole entry, looked up): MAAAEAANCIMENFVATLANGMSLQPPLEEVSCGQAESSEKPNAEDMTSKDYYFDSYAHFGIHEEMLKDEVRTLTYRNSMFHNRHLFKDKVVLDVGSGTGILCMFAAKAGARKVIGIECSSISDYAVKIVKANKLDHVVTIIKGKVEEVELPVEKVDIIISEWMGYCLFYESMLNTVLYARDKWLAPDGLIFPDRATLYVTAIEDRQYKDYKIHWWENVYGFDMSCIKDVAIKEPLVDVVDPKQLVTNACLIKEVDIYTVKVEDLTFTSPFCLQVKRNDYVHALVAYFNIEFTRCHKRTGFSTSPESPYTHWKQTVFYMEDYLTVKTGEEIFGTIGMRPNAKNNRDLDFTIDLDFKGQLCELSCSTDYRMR
Chain of RmtA (Q5VLE3 whole entry): as the sequence (Q5VLE3 as listed by the source) above

| Structure (SMILES) | Activity [1] | IC50 (RmtA) | Activity [2] | Activity [3] |
| --- | --- | --- | --- | --- |
| CC(S)C(=O)NCCCN (stereo not given) | < 20% | 46.8 µM | – | – |
| CC(SC1c2ccccc2Oc2ccccc21)C(=O)NCCOCCOCCNC(=O)C(C)SC1c2ccccc2Oc2ccccc21 (stereo not given) | < 20% | – | < 20% | – |
| O=C(CSC1c2ccccc2Oc2ccccc21)N1CCCCC1 | < 20% | – | < 20% | – |

More lines, now with the values ahead:

| Activity [1] | IC50 (RmtA) | Activity [2] | Activity [3] | Structure (SMILES) |
| --- | --- | --- | --- | --- |
| – | 46.2 µM | – | inactive | CC(SC1c2ccccc2Oc2ccccc21)C(=O)NCCNC(=O)C(C)SC1c2ccccc2Oc2ccccc21 (stereo not given) |
| < 20% | – | < 20% | – | CC(SC1c2ccccc2Sc2ccccc21)C(=O)N1CCCC1 (stereo not given) |

From ChEMBL document CHEMBL1145428, “A novel arginine methyltransferase inhibitor with cellular activity” (Bioorg Med Chem Lett, 2007)
